The source of these data is PubChem BioAssay AID328 (DTP/NCI, 2004).

The experiment deals with BDF1 mice, P388 leukemia ip, median survival T/C. Briefly: NCI In Vivo Anticancer Drug Screen. Data for tumor model P388 Leukemia (intraperitoneal) in B6D2F1 (BDF1) mice. To be noted: endpoint: median survival time, higher = longer survival. Put shortly: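 Survival ratio, drug arm over vehicle arm, in mice with a transplanted tumour.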
The mark [1] stands for this setting: dose: 25.0 mg/kg/injection, schedule: Q01DX009 (ip), vehicle: saline.
The mark [2] stands for this setting: dose: 50.0 mg/kg/injection, schedule: Q01DX009 (ip), vehicle: saline.
The mark [3] stands for this setting: dose: 50.0 mg/kg/injection, schedule: Q04DX003 (ip), vehicle: saline.
[4] abbreviates: dose: 100.0 mg/kg/injection, schedule: Q04DX003 (ip), vehicle: saline.
[5] abbreviates: dose: 200.0 mg/kg/injection, schedule: Q04DX003 (ip), vehicle: saline.
Where [6] appears, read: dose: 20.0 mg/kg/injection, schedule: Q01DX009 (ip), vehicle: Klucel (hydroxypropylcellulose) (HPC).
[7] abbreviates: dose: 100.0 mg/kg/injection, schedule: Q01DX001 (ip), vehicle: saline with Tween-80.
The mark [8] stands for this setting: dose: 200.0 mg/kg/injection, schedule: Q01DX001 (ip), vehicle: saline with Tween-80.
Setting [9] is: dose: 400.0 mg/kg/injection, schedule: Q01DX001 (ip), vehicle: saline with Tween-80.
[10] abbreviates: dose: 100.0 mg/kg/injection, schedule: Q01DX009 (ip), vehicle: Klucel (hydroxypropylcellulose) (HPC).
Setting [11] is: dose: 100.0 mg/kg/injection, schedule: Q04DX003 (ip), vehicle: Klucel (hydroxypropylcellulose) (HPC).
The mark [12] stands for this setting: dose: 200.0 mg/kg/injection, schedule: Q04DX003 (ip), vehicle: Klucel (hydroxypropylcellulose) (HPC).
The mark [13] stands for this setting: dose: 200.0 mg/kg/injection, schedule: Q01DX009 (ip), vehicle: Klucel (hydroxypropylcellulose) (HPC).
[14] abbreviates: dose: 400.0 mg/kg/injection, schedule: Q01DX009 (ip), vehicle: Klucel (hydroxypropylcellulose) (HPC).
[15] abbreviates: dose: 100.0 mg/kg/injection, schedule: Q01DX009 (ip), vehicle: saline with Tween-80.

Several values for one entry are separate records, joined by “and”; a condition that tells them apart may be missing. Equal values may be shown once. Inconclusive results and toxic doses are left out.

With `CCNC(C)(C)C(Cl)c1cccs1` (configuration not stated), the T/C by setting is: (dose: 0.78 mg/kg/injection, schedule: Q01DX009 (ip), vehicle: saline) 101 % of control; (dose: 1.56 mg/kg/injection, schedule: Q01DX009 (ip), vehicle: saline) 110 % of control; (dose: 3.12 mg/kg/injection, schedule: Q01DX009 (ip), vehicle: saline) 90 % of control; (dose: 6.25 mg/kg/injection, schedule: Q01DX009 (ip), vehicle: saline) 92 % of control and 106 % of control; under setting [1], 87 % of control; under setting [2], 87 % of control and 112 % of control. In addition, the T/C is 100 % of control under setting [3]; 114 % of control (dose: 100.0 mg/kg/injection, schedule: Q01DX009 (ip), vehicle: saline); 118 % of control under setting [4]; 86 % of control under setting [5].
For `CC(C)S(=O)(=O)/C(Cl)=C(/Cl)C(Cl)=C(Cl)Cl`, the T/C is, setting by setting: (dose: 13.0 mg/kg/injection, schedule: Q01DX009 (ip), vehicle: Klucel (hydroxypropylcellulose) (HPC)) 100 % of control; under setting [6], 100 % of control; (dose: 30.0 mg/kg/injection, schedule: Q01DX009 (ip), vehicle: Klucel (hydroxypropylcellulose) (HPC)) 95 % of control.
In the case of `CCn1cnc2c(=S)nc[nH]c21`, the T/C runs as follows: (dose: 15.6 mg/kg/injection, schedule: Q01DX010 (ip), vehicle: saline) 100 % of control and 115 % of control; (dose: 31.3 mg/kg/injection, schedule: Q01DX010 (ip), vehicle: saline) 90 % of control and 105 % of control; (dose: 62.5 mg/kg/injection, schedule: Q01DX010 (ip), vehicle: saline) 104 % of control and 115 % of control.
`c1cc(Sc2cccc3nncn23)n2cnnc2c1`: the T/C is, setting by setting: under setting [7], 103 % of control; under setting [8], 97 % of control; under setting [9], 103 % of control.
For the compound `O=[N+]([O-])c1cc([N+](=O)[O-])c(NN(c2ccc(Cl)cc2)c2ccc(Cl)cc2)c([N+](=O)[O-])c1`, the T/C is, setting by setting: (dose: 50.0 mg/kg/injection, schedule: Q01DX009 (ip), vehicle: Klucel (hydroxypropylcellulose) (HPC)) 109 % of control; under setting [10], 113 % of control; under setting [11], 118 % of control; under setting [12], 118 % of control.
Turning to `CC1(C#N)c2ccccc2C=CN1C(=O)c1ccccc1` (configuration not stated), the T/C by setting is: under setting [10], 90 % of control; under setting [11], 100 % of control; under setting [13], 100 % of control; under setting [12], 95 % of control; under setting [14], 100 % of control; (dose: 400.0 mg/kg/injection, schedule: Q04DX003 (ip), vehicle: Klucel (hydroxypropylcellulose) (HPC)) 100 % of control.
`CS(=O)(=O)Nc1cc(Cl)c(NS(C)(=O)=O)c(Cl)c1Cl`: the T/C by setting is: under setting [7], 100 % of control; under setting [8], 103 % of control; under setting [9], 100 % of control.
Consider `C1=CC=CCC=C1`, for which the T/C is, setting by setting: (dose: 12.5 mg/kg/injection, schedule: Q04DX003 (ip), vehicle: saline) 100 % of control; under setting [1], 150 % of control; (dose: 25.0 mg/kg/injection, schedule: Q04DX003 (ip), vehicle: saline) 113 % of control; under setting [2], 111 % of control; under setting [3], 109 % of control.
As for `NC(=O)c1ncc(-c2ccc(Cl)cc2)[nH]c1=O`, the T/C is, setting by setting: under setting [15], 95 % of control; (dose: 200.0 mg/kg/injection, schedule: Q01DX009 (ip), vehicle: saline with Tween-80) 90 % of control; (dose: 400.0 mg/kg/injection, schedule: Q01DX009 (ip), vehicle: saline with Tween-80) 109 % of control.
Turning to `COc1ccc(C(=O)/C=C/c2ccccc2)c(O)c1CC=C(C)C`, the T/C was 114 % of control (dose: 1.25 mg/kg/injection, schedule: Q01DX009 (ip), vehicle: Klucel (hydroxypropylcellulose) (HPC)); 118 % of control (dose: 2.5 mg/kg/injection, schedule: Q01DX009 (ip), vehicle: Klucel (hydroxypropylcellulose) (HPC)); 91 % of control (dose: 5.0 mg/kg/injection, schedule: Q01DX009 (ip), vehicle: Klucel (hydroxypropylcellulose) (HPC)); 91 % of control (dose: 10.0 mg/kg/injection, schedule: Q01DX009 (ip), vehicle: Klucel (hydroxypropylcellulose) (HPC)); 95 % of control under setting [6]; 91 % of control (dose: 40.0 mg/kg/injection, schedule: Q01DX009 (ip), vehicle: Klucel (hydroxypropylcellulose) (HPC)).
For `O=C(Nc1cccc(Cl)c1)Nc1ccccc1Cl`, the T/C reads like this: (dose: 100.0 mg/kg/injection, schedule: Q04DX003 (ip), vehicle: saline with Tween-80) 97 % of control; (dose: 200.0 mg/kg/injection, schedule: Q04DX003 (ip), vehicle: saline with Tween-80) 108 % of control; (dose: 400.0 mg/kg/injection, schedule: Q04DX003 (ip), vehicle: saline with Tween-80) 91 % of control.
On to `CCC(C)C1NC(=O)C(NC(=O)c2c3nc4c(C(=O)NC5C(=O)NC(C(C)CC)C(=O)N6CCCC6C(=O)N(C)CC(=O)N(C)C(C(C)C)C(=O)OC5C)cc([N+](=O)[O-])c(C)c4oc-3c(C)c(=O)c2N)C(C)OC(=O)C(C(C)C)N(C)C(=O)CN(C)C(=O)C2CCCN2C1=O` (configuration not stated), for which the T/C is, setting by setting: (dose: 0.15 mg/kg/injection, schedule: Q04DX003 (ip), vehicle: saline + alcohol) 197 % of control; (dose: 0.3 mg/kg/injection, schedule: Q04DX003 (ip), vehicle: saline + alcohol) 157 % of control and 216 % of control; (dose: 0.6 mg/kg/injection, schedule: Q04DX003 (ip), vehicle: saline + alcohol) 229 % of control and 221 % of control; (dose: 1.2 mg/kg/injection, schedule: Q04DX003 (ip), vehicle: saline + alcohol) 270 % of control and 177 % of control; (dose: 2.4 mg/kg/injection, schedule: Q04DX003 (ip), vehicle: saline + alcohol) 116 % of control; (dose: 50.0 micrograms/kg/injection, schedule: Q01DX009 (ip), vehicle: saline + alcohol) 173 % of control. Moreover, the T/C is, setting by setting: (dose: 100.0 micrograms/kg/injection, schedule: Q01DX009 (ip), vehicle: saline + alcohol) 197 % of control; (dose: 200.0 micrograms/kg/injection, schedule: Q01DX009 (ip), vehicle: saline + alcohol) 312 % of control; (dose: 400.0 micrograms/kg/injection, schedule: Q01DX009 (ip), vehicle: saline + alcohol) 118 % of control.
As to `CC(=O)[C@@]1(O)CC[C@H]2[C@@H]3C[C@H](C)C4=CC(=O)C=C[C@]4(C)[C@@]3(F)[C@@H](O)C[C@@]21C`, the T/C by setting is: (dose: 5.0 mg/kg/injection, schedule: Q01DX010 (sc), vehicle: steriod suspending solution) 109 % of control; (dose: 10.0 mg/kg/injection, schedule: Q01DX010 (sc), vehicle: steriod suspending solution) 109 % of control; (dose: 20.0 mg/kg/injection, schedule: Q01DX010 (sc), vehicle: steriod suspending solution) 118 % of control; (dose: 80.0 mg/kg/injection, schedule: Q01DX010 (sc), vehicle: steriod suspending solution) 118 % of control; (dose: 320.0 mg/kg/injection, schedule: Q01DX010 (sc), vehicle: steriod suspending solution) 95 % of control and 112 % of control; (dose: 640.0 mg/kg/injection, schedule: Q01DX010 (sc), vehicle: steriod suspending solution) 112 % of control.
Regarding `CC(=O)c1cccc(OCC(O)CN(C(C)C)C(C)C)c1` (configuration not stated), the T/C under setting [4] is 104 % of control and the T/C under setting [5] is 109 % of control.
Regarding `CN(C)N=Nc1ccccc1Cl`, the T/C is 119 % of control (dose: 25.0 mg/kg/injection, schedule: Q01DX009 (ip), vehicle: saline with Tween-80) and 157 % of control under setting [15].
Regarding `Nc1ncnc2sc3c(c12)CCCC3`, the T/C under setting [10] was 105 % of control, the T/C under setting [13] was 114 % of control and the T/C under setting [14] is 108 % of control.
Take `C1CCCC(NC2=NCCO2)CC1`: the T/C (dose: 6.25 mg/kg/injection, schedule: Q04DX003 (ip), vehicle: saline with Tween-80) is 100 % of control; the T/C (dose: 12.5 mg/kg/injection, schedule: Q04DX003 (ip), vehicle: saline with Tween-80) was 100 % of control; the T/C (dose: 25.0 mg/kg/injection, schedule: Q04DX003 (ip), vehicle: saline with Tween-80) is 104 % of control.
In the case of `c1coc(NC2CCCCC2)n1`, the T/C reads like this: under setting [7], 90 % of control; under setting [8], 95 % of control; under setting [9], 95 % of control.
